For the experiment, the target named is T1, GST-tagged ROR gamma ligand binding domain (LBD) (Homo sapiens, UniProt P51449).
T1 construct: purchased Invitrogen
T1 sequence (P51449 269-508 limits assumed): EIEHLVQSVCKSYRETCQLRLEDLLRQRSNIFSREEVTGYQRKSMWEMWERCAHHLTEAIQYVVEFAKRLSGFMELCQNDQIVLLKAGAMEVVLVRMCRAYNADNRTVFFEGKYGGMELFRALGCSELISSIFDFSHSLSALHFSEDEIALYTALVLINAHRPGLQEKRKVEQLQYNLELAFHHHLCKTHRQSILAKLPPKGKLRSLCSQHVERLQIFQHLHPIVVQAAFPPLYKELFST
The experiment can be described thus: TR-FRET assay for ROR gamma (LanthaScreen, Fluorescein-D22 co-activator peptide recruitment). Conditions: for inhibition at 1 µM: 1 μM compound; for inhibition at 1 µM / inhibition at 10 µM: TR-FRET ratio 520/495; for inhibition at 10 µM: 10 μM compound; for IC50: dose response curve, class symbols. The class given is biochemical. The source says: The compounds described herein were screened for ROR gamma modulator activity using the TR-FRET assay (LanthaScreen™ available from Invitrogen of Carlsbad, Calif.) as described in JBC 2011, 286, 26: 22707-10; and Drug Metabolism and Disposition 2009, 37, 10: 2069-78.
The assay is based on the principle that binding of the agonist to the ROR gamma causes a conformational change around helix 12 in the ligand binding domain, resulting in higher affinity for the co-activator peptide. ROR gamma being constitutively active, the Fluorescein-D22 co-activator peptide used in the assay is recruited in the absence of a ligand. Binding of the co-activator peptide, causes an increase in the TR-FRET signal while binding of an antagonist decreases the recruitment of the co-activator peptide, causing a decrease in the TR-FRET signal compared to control with no compound. The assay was performed using a two-step procedure, pre-incubation step with the compound followed by the detection step on addition of the anti-GST tagged terbium (Tb) and fluorescein tagged fluorophores as the acceptor.
Test compounds or reference compounds such as T0901317 (Calbiochem) were dissolved in dimethylsulfoxide (DMSO) to prepare 10.0 mM stock solutions and diluted to the desired concentration. The final concentration of DMSO in the reaction was 4% (v/v). The assay mixture was prepared by mixing 10 nM of the GST-tagged ROR gamma ligand binding domain (LBD) in the assay buffer containing 25 mM HEPES, 100 mM NaCl, 5 mM DTT and 0.01% BSA with or without the desired concentration of the compound. The reaction was incubated at 22° C. for 1 hour. The pre-incubation step was terminated by addition of the detection mixture containing 300 nM Fluorescein-D22 co-activator peptide and 10 nM lantha screen Tb-anti GST antibody into the reaction mixture. After shaking for 5 minutes the reaction was further incubated for 1 hour at room temperature and read […] on an Infinite F500 reader as per the kit instructions (Invitrogen). The inhibition of test compound was calculated based on the TR-FRET ratio of 520/495. The activity was calculated as a percent of control reaction. IC50 values were calculated from dose response curve by nonlinear regression analysis using GraphPad Prism software.
Percentage inhibition at concentrations of 1.0 μM and 10.0 μM are given in the table along with IC50 (nM) details for selected examples.

As for `Cc1cccc(Cl)c1N(C)C(=O)c1ccc(NC(=O)Cc2ccc(C(F)(F)C(C)O)cc2)cc1` (stereo not drawn) [Example 31], the inhibition at 1 µM amounted to 79.1%, the inhibition at 10 µM is 86.6% and the IC50 lay within 50 to 100 nM.

Regarding `Cc1cc(C)c(N(C)C(=O)c2ccc(NC(=O)Cc3ccc(C(F)(F)C(C)O)cc3)cc2)c(C)c1` (stereo not drawn) [Example 32], the inhibition at 1 µM amounted to 84.9%, the inhibition at 10 µM turned out to be 95% and the IC50 fell in the range of 50 to 100 nM.

For the compound `Cc1cc(C)c(N(C)C(=O)c2ccc(NC(=O)Cc3ccc(C(F)(F)C(C)O)cc3)cc2)c(Cl)c1` (stereo not drawn) [Example 33], the inhibition at 1 µM was 86.8%, the inhibition at 10 µM turned out to be 90.2% and the IC50 was less than 50 nM.

Regarding `Cc1ccc(N(C)C(=O)c2ccc(NC(=O)Cc3ccc(C(F)(F)C(C)O)cc3)cc2)c(C2CC2)c1` (stereo not drawn) [Example 34], the inhibition at 1 µM amounted to 91.8%, the inhibition at 10 µM amounted to 92.6% and the half-maximal inhibitory concentration (IC50) is less than 50 nM.

As for `Cc1cc(C)cc(N(C)C(=O)c2ccc(NC(=O)Cc3ccc(C(F)(F)[C@@H](C)O)cc3)cc2)c1` [Example 36], the inhibition at 1 µM was determined as 89.7%, the inhibition at 10 µM was 94.5% and the IC50 is less than 50 nM.

On to `Cc1cc(N(C)C(=O)c2ccc(NC(=O)Cc3ccc(C(F)(F)C(C)O)cc3)cc2)c(F)cc1Cl` (stereo not drawn) [Example 37], for which the inhibition at 1 µM worked out at 93.9%, the inhibition at 10 µM worked out at 96.3% and the IC50 was less than 50 nM.

With `CC(O)C(F)(F)c1ccc(CC(=O)Nc2ccc(C(=O)N(C)c3ccc(C4CC4)cc3Cl)cc2)cc1` (stereo not drawn) [Example 38], the inhibition at 1 µM was found to be 92.6%, the inhibition at 10 µM worked out at 94.8% and the IC50 was less than 50 nM.

Take `Cc1ccc(C2CC2)cc1N(C)C(=O)c1ccc(NC(=O)Cc2ccc(C(F)(F)C(C)O)cc2)cc1` (stereo not drawn) [Example 39]: the inhibition at 1 µM was 84.1%, the inhibition at 10 µM turned out to be 92% and the IC50 is less than 50 nM.

On to `CC(O)C(F)(F)c1ccc(CC(=O)Nc2ccc(C(=O)N(C)c3cc(C4CC4)ccc3Cl)cc2)cc1` (stereo not drawn) [Example 40], for which the inhibition at 1 µM was 90.8%, the inhibition at 10 µM was found to be 94.3% and the IC50 is less than 50 nM.

(Values after US20190144375A1, “NOVEL CARBOCYCLIC COMPOUNDS AS ROR GAMMA MODULATORS” (Glenmark Pharmaceuticals S.A., priority 2015, published 2019).)
